Laboratory results as given in patent publication US4920118A, “Aromatic 2-aminoalkyl-1,2-benzoisothiazol-3-(2H)one-1,1-dioxide and their use as anxiolytic and anti-hypertensive agents” (Merrell Dow Pharmaceuticals Inc., priority 1989, dated 1990).
Like-named read-outs stand apart in the source and are kept apart here. Values belong to the compound of their own block, whether it stands above or below them.

How the values were obtained:
5-HT1A recognition sites = molecular target: T1, 5-HT1A recognition sites (Rattus norvegicus, UniProt P19327); test: 5-HT1A radioligand binding, rat frontal cortex homogenate; settings: for Fold Increase (antilog of the difference of the test compound compared to buspirone): 5-HT1A binding potency relative to buspirone
T1 construct: male normotensive Sprague-Dawley rat frontal cortex was dissected, frozen in liquid nitrogen; from tissue; host or cells: frontal cortex of male normotensive Sprague-Dawley rats, washed homogenate
T1 sequence (P19327 1-422): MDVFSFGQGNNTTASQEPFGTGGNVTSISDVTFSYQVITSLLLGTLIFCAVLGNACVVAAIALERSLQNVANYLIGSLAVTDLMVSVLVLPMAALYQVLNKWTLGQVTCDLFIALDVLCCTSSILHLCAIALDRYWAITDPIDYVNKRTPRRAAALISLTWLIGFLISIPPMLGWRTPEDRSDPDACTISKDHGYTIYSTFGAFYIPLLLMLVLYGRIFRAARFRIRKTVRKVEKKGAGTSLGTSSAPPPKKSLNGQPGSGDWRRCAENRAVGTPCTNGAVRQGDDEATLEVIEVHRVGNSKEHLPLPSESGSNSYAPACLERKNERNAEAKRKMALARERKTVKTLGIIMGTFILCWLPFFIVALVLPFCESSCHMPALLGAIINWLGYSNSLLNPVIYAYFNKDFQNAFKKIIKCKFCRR

[1] = tested on: conscious spontaneously hypertensive rats; test: Arterial blood pressure and heart rate in conscious spontaneously hypertensive rats; format: in vivo, rat; settings: for Δ BP / Δ HR: conscious SHR
Method: In a separate experiment arterial blood pressure and heart rate were measured directly in conscious male, spontaneously hypertensive rats weighing 250-350 g (Charles River, France). The same test compound was administered, either s.c. or orally, as a saline solution of 1 ml/kg body weight in the doses shown below.

[2] = tested on: anesthetized normotensive Sprague-Dawley rats; test: Blood pressure and heart rate in anesthetized normotensive rats; format: in vivo, rat
Method: Male, normotensive Sprague-Dawley rats weighing 250-350 g (supplied by Charles River, France) were anesthetized with pentobarbitone sodium, 60 mg/kg, i.p., plus 15 mg/kg s.c. Blood pressure was recorded either from the left common carotid artery or from a femoral artery by means of a Statham pressure transducer (Type P23 AA) and heart rate was recorded from the electrocardiogram using a Beckman cardiotachometer coupler (Type 9757 B). […] A femoral vein was cannulated for the intravenous injection of drugs. After completion of all operative procedures, heparin 500 U was injected intravenously.
The compounds of Example I, 2-[4-[(2,3-dihydro-1,4-benzodioxine-2-yl)methylamino]butyl]-1,2-benzoisothiazol-3(2H)one-1,1-dioxide was administered s.c. as a saline solution in a volume of 1 ml/kg body weight. The following changes in blood pressure (B.P.) and heart rate (H.R.) were observed.

[3] = [3H]-8-OH-DPAT, rat frontal cortex, mean ± S.E.M. of 3 independent experiments, read-out: 5-HT1A Binding Affinity Rat Brain Cortex (pIC50) (converted)

- Fold Increase (antilog of the difference of the test compound compared to buspirone) (5-HT1A recognition sites): 66
- IC50 (5-HT1A recognition sites; [3]): 0.457 nM
SMILES: O=C1c2ccccc2S(=O)(=O)N1CCCCNCC1COc2ccccc2O1 (stereo not drawn) [Example I, 2-[4-[(2,3-Dihydro-1,4-benzodioxin-2-yl)methylamino]butyl]-1,2-benzoisothiazol-3(2H)one-1,1-dioxide]
- Δ BP ([1]; 100 μg/kg s.c.): -20 mmHg
- Δ HR ([1]; 100 μg/kg s.c.): +80 beats/min
- Δ BP ([1]; 200 μg/kg s.c.): -65 mmHg
- Δ HR ([1]; 200 μg/kg s.c.): +100 beats/min
- Δ BP ([1]; 500 μg/kg s.c.): -75 mmHg
- Δ HR ([1]; 500 μg/kg s.c.): +120 beats/min
- Δ BP ([1]; 1 mg/kg per os): -25 mmHg
- Δ HR ([1]; 1 mg/kg per os): +100 beats/min
- Δ BP ([1]; 5 mg/kg per os): -45 mmHg
- Δ HR ([1]; 5 mg/kg per os): +100 beats/min
- Effect on blood pressure and heart rate (in words) ([1]; conscious spontaneously hypertensive rats): lowers the blood pressure with reflex tachycardia
- Effect on blood pressure and heart rate (in words) [2]: effectively lowers the blood pressure and heart rate
- Δ BP ([2]; 25 μg/kg s.c.): -35 mmHg
- Δ HR ([2]; 25 μg/kg s.c.): -80 beats/min
- Δ BP ([2]; 500 μg/kg s.c.): -50 mmHg
- Δ HR ([2]; 500 μg/kg s.c.): -90 beats/min

SMILES: O=C1c2ccccc2S(=O)(=O)N1CCCCN1CCc2c([nH]c3ccccc23)C1 [Example II, 2-[4-(2-[1,2,3,4]-tetrahydro-β-carbolinyl)butyl]-1,2-benzoisothiazol-3(2H)one-1,1-dioxide]
- IC50 (5-HT1A recognition sites): 6.92 nM
- Fold Increase (antilog of the difference of the test compound compared to buspirone) (5-HT1A recognition sites): 4.4

- Fold Increase (antilog of the difference of the test compound compared to buspirone) (5-HT1A recognition sites): 10
- IC50 (5-HT1A recognition sites; [3]): 3.02 nM
SMILES: COc1cccc2c1CC(NCCCCN1C(=O)c3ccccc3S1(=O)=O)CC2 (stereo not drawn) [Example III, 2-[4-[8-Methoxytetralin-2-amino]butyl]1,2-benzoisothiazol3(2H)one-1,1-dioxide]

- Fold Increase (antilog of the difference of the test compound compared to buspirone) (5-HT1A recognition sites): 3.2
- IC50 (5-HT1A recognition sites; [3]): 9.33 nM
SMILES: O=C1c2ccccc2S(=O)(=O)N1CCCCNCC1COc2ccccc2N1 (stereo not drawn) [Example V, 2-[4-[(2,3-Dihydro-1,4-benzoxazin-3-yl)methylamino]butyl]-1,2-benzoisothiazol-3-(2H)one-1,1-dioxide]
